Earlier results, collected in US20080279914A1, “Transdermal composition comprising piroxicam-inorganic material complex and patch system comprising the same” (priority 2006, published 2008).

Conditions: orally administered

- drug discharged unchanged in the urine: less than 5%
Structure (SMILES): CN1C(C(=O)Nc2ccccn2)=C(O)c2ccccc2S1(=O)=O [piroxicam]
